According to patent publication US11649233B2, “Halo-allylamine SSAO/VAP-1 inhibitor and use thereof” (Nanjing Transthera Biosciences Co., Ltd., priority 2017, dated 2023):
Counter-ions that a name gives are not always drawn.

Legend:
[1] = Stability test in human liver microsome; type: in vitro ADME; details: human liver microsome 0.5 mg protein/mL, compound 1 μM, β-NADPH
Protocol: Biological Example 3: Stability Test of the Compounds of the Present Invention in Human Liver Microsome
The composition of the incubation system:
(1) The liver microsome (20 mg protein/mL) was removed from the −80° C. refrigerator, pre-incubated in a 37° C. water bath constant temperature oscillator for 3 minutes, and thawed for use.
(2) A mixed solution of the incubation system (excluding compound and β-NADPH) according to the above “composition of the incubation system” for the test was prepared, and pre-incubated in a 37° C. water bath constant temperature oscillator for 2 minutes.
(3) Control group (excluding β-NADPH): 30 μL of water and 30 μL of compound working solution (concentration: 10 μM) were added to 240 μL of the mixed solution of the incubation system of step (2), and vortexed for 30 seconds to mix well. The total reaction volume was 300 μL. A duplicate sample was prepared. The sample was incubated in a 37° water bath constant temperature oscillator. The timing began and the sampling time points were set at 0 minute and 60 minutes.
(4) Sample group: 70 μL β-NADPH solution (10 mM) and 70 μL compound working solution (concentration: 10 μM) were added to 560 μL of the mixed solution in step (2). The total reaction volume was 700 μL. The resulting mixture was vortexed for 30 seconds to mix well. A duplicate sample was prepared. The sample was incubated in a 37° C. water bath constant temperature oscillator. The timing began and the sampling time points were set at 0 minute, 5 minutes, 10 minutes, 20 minutes, 30 minutes, and 60 minutes after timing.
(5) After vortexing for 3 minutes, the sample was centrifuged at 12000 rpm for 5 minutes.
(6) 150 μL of water was added to 50 μL of the supernatant. The resulting mixture was evenly mixed in vortex, and the sample LC/MS/MS analysis was performed.

rhVAP-1 [2] = target: T1, rhVAP-1 (Homo sapiens (Human), UniProt Q16853); assay: Inhibition activity of the compounds on the rhVAP-1 enzyme (Amplex Red/HRP fluorescence, benzylamine substrate); type: biochemical; details: 30 minutes pre-incubation at 37° C.
T1 sequence (Q16853 whole entry): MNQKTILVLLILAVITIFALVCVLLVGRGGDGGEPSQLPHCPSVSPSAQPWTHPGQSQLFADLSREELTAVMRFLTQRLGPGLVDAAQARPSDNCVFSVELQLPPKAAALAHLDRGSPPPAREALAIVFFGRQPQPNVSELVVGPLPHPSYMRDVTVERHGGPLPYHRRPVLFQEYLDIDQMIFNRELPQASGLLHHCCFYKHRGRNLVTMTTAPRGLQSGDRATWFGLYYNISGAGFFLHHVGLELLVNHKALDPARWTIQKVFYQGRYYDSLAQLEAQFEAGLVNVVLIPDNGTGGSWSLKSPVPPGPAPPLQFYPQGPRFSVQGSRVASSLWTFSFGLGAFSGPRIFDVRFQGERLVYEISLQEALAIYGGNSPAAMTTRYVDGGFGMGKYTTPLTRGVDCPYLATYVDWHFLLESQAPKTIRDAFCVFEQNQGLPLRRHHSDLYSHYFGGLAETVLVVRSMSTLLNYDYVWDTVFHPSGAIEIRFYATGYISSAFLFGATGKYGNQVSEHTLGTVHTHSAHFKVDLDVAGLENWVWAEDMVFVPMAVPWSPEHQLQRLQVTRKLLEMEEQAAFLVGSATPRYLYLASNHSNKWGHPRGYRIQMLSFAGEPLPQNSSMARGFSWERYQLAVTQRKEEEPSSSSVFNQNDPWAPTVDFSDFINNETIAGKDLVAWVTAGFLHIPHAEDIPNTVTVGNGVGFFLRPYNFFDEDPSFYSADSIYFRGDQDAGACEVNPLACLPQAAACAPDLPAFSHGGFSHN
Protocol: 1. Inhibition Activity of the Compounds on the rhVAP-1 Enzyme
Multifunctional microplate reader (MD, FlexStation 3), black bottom-impermeable 96-well plate (Corning), rhVAP-1 (PeproTech)
An appropriate amount of the test compound was dissolved in DMSO to 10 mM and stored. Before the experiment, an appropriate amount of 10 mM test compound mother liquor was diluted to 10 μM solution with DMSO. Then 3-fold gradient dilution with DMSO was performed, and 10 concentration gradients were formed.
An appropriate amount of protein diluent was added to the rhVAP-1 powder to obtain 1 mg/mL of the mother liquor for storage. Before the experiment, the dilution with PBS provided a 4×concentration of the enzyme solution.
An appropriate amount of benzylamine was added to PBS and dissolved to obtain 200 mM of the benzylamine solution. 2 mM Amplex Red mother liquor and 500 U/mL HRP mother liquor were added. The dilution with PBS provided 2×concentration substrate mixed solution.
(§1) First, 10 μL of compound solutions of different concentrations, 25 μL of 4×rhVAP-1 enzyme solution and 15 μL of PBS were added to a 96-well plate, evenly mixed by oscillation, and incubated at 37° C. for 30 minutes. Then 50 μL of 2×substrate mixed solution was added to each well, and immediately the detection was performed with the microplate reader in a condition of an exciting light at 565 nm, an emitting light at 590 nm, the fluorescence intensity for detecting each well of 5 minutes/run, and a total detection time of 25 minutes. The inhibition rate was calculated according to the following formula: V(RFU/min)=(Ft(RFU)−F0(RFU))/(Time(min)) Inhibition rate (%)=100%−Vcmpd(RFU/min)/V max(RFU/min)×100%
(§2) V: the fluorescence change rate; Ft: fluorescence reading at the time point t; F0: fluorescence reading at the time point 0; Time: time period t; Vcmpd: the fluorescence change rate of the test compound; Vmax: the Max well fluorescence change rate.
(§3) The log values of the concentrations were taken as the X-axis and the percent inhibition rates were taken as the Y-axis, and the dose-effect curve was fitted using the log(inhibitor) vs. response-Variable slope of the analytical software GraphPad Prism 5 to obtain the IC50 value of each compound for enzyme activity.

MAO-B = MAO-B (Homo sapiens (Human), UniProt P27338); assay: Selectivity of the compounds for MAO-B enzyme (MAO-Glo); type: biochemical; details: 60 minutes pre-incubation at 37° C.
Sequence of MAO-B (P27338 whole entry): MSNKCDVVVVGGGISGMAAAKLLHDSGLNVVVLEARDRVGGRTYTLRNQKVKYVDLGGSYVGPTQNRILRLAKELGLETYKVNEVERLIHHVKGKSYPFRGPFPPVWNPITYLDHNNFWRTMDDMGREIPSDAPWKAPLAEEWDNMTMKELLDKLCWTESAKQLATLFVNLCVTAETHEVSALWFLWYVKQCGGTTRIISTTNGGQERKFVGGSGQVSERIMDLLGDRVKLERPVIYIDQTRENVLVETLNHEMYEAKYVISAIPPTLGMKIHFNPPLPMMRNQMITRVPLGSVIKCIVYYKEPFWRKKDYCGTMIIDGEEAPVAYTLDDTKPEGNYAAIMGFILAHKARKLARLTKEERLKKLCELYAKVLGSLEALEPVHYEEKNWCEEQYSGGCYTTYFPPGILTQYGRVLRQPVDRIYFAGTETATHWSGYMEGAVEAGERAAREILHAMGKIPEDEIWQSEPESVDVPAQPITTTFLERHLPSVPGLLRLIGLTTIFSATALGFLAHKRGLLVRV
Protocol: (§4) 2. Selectivity of the Compounds for MAO-A/B Enzymes
(§5) Microplate reader (Perkin Elmer, Envision), 384 well plates (Perkin Elmer), centrifuge (Eppendorf), MAO-Glo™ (Promega), MAO-A (Active Motif) and MAO-B (Active Motif).
(§6) An appropriate amount of the test compound was dissolved in DMSO to 10 mM and stored. Before the experiment, an appropriate amount of 10 mM test compound mother liquor was diluted to 100 μM solution with DMSO. Then 4-fold gradient dilution with DMSO was performed, and 6 concentration gradients were formed.
(§7) The MAO-A/B mother liquor was diluted to 2×concentration enzyme solution with the assay buffer solution for the MAO-A/B.
(§8) The mother liquor of the MAO-A/B substrate mixed solution was diluted to 2×concentration substrate mixed solution with the assay buffer solution for the MAO-A/B.
(§9) 200 nL of compound solutions of different concentrations or solvent
(§10) and 10 μL of 2×MAO-A/B enzyme solution were added to a 384-well plate, evenly mixed by oscillation, and incubated at 37° C. for 60 minutes. Then 10 μL of 2×substrate mixed solution was added to each well, and immediately the detection was performed with the microplate reader in a condition of an exciting light at 535 nm, an emitting light at 587 nm, the fluorescence intensity for detecting each well of 5 minutes/run, and a total detection time of 25 minutes.
(§11) The inhibition rate was calculated according to the following formula: V(RFU/min)=(Ft(RFU)−F0(RFU))/(Time(min)) Inhibition rate (%)=100%−Vcmpd(RFU/min)/V max(RFU/min)×100%
as §2, §3

MAO-A = MAO-A (Homo sapiens (Human), UniProt P21397); assay: Selectivity of the compounds for MAO-A enzyme (MAO-Glo); type: biochemical; details: 60 minutes pre-incubation at 37° C.
Sequence of MAO-A (P21397 whole entry): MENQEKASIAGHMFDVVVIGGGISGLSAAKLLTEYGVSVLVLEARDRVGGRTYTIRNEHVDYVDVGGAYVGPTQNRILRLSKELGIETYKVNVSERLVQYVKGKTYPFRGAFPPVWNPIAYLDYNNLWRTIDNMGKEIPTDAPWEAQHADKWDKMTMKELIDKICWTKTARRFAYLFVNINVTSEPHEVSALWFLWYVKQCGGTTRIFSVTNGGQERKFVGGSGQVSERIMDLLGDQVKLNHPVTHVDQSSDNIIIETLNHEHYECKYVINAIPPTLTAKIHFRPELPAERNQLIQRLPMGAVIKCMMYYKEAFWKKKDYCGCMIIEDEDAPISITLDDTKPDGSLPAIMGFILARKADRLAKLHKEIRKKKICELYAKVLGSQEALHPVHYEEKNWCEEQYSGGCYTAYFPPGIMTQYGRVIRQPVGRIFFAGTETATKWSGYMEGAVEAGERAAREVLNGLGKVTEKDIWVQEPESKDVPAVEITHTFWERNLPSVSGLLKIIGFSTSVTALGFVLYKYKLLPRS
Protocol: as §4, §5, §6, §7, §8, §9, §10, §11, §2, §3

rhVAP-1 [3] = target: T1, rhVAP-1; assay: Time-dependent inhibition assay for the rhVAP-1 enzyme; type: biochemical
Protocol: Biological example 4: Time-dependent inhibition assay for the rhVAP-1 enzyme
After incubation of the test substances at corresponding time intervals according to Table 4, the activity was measured at each time point in the same manner as in the rhVAP-1 enzymatic test method of biological example 1.
as §1, with “Specifically,” for “First,”, “concentrations or solvent,” for “concentrations,”, “0 minutes, 3 minutes, 6 minutes, 9 minutes and 12” for “30”, “minutes.” for “minutes. The inhibition rate was calculated according to the following formula: V(RFU/min)=(Ft(RFU)−F0(RFU))/(Time(min)) Inhibition rate (%)=100%−Vcmpd(RFU/min)/V max(RFU/min)×100%”

Row | SMILES | ClH [1] | IC50 (rhVAP-1 [2]) | IC50 (MAO-B) | also measured
1 | NC/C(=C\F)COc1cc2c(cn1)C(=O)N(C1CC1)CC2 [Compound 22, (E)-6-((2-(aminomethyl)-3-fluoroallyl)oxy)-2-cyclopropyl-3,4-dihydro-2,7-naphthyridin-1(2H)-one] | 2.94 mL/min/kg | – | – | –
2 | NC/C(=C/F)COc1ccc2c(n1)CCN(C1CC1)C2=O [Compound 23, (Z)-2-((2-(aminomethyl)-3-fluoroallyl)oxy)-6-cyclopropyl-7,8-dihydro-1,6-naphthyridin-5(6H)-one] | 4.63 mL/min/kg | – | – | –
3 | NC/C(=C\F)COc1cnc2c(c1)CCNC2=O [Hydrochloride of Compound 8, (E)-3-((2-(aminomethyl)-3-fluoroallyl)oxy)-6,7-dihydro-1,7-naphthyridin-8(5H)-one] | – | 0.03 µM | > 100 µM | –
4 | Cl.NC/C(=C\F)COc1ccc2c(c1)CN(C1CC1)C2=O [Hydrochloride of Compound 16, (E)-5-((2-(aminomethyl)-3-fluoroallyl)oxy)-2-cyclopropyl isoindolin-1-one] | 0.18 mL/min/kg | 0.024 µM | 2.8 µM | –
5 | CCN(CC)C(=O)c1ccc(OC/C(=C/F)CN)cn1.Cl [Hydrochloride of Compound 19, (E)-5-((2-(aminomethyl)-3-fluoroallyl)oxy)-N,N-diethylpicolinamide] | →0 mL/min/kg | 0.021 µM | – | –
6 | Cl.NC/C(=C\F)COc1cc2c(cn1)C(=O)N(C1CC1)C2 [Hydrochloride of Compound 21, (E)-6-((2-(aminomethyl)-3-fluoroallyl)oxy)-2-cyclopropyl-1,2-dihydro-3H-pyrrolo-[3,4-c]pyridin-3-one] | 4.95 mL/min/kg | 0.021 µM | 14 µM | IC50 (MAO-A): > 100 µM
7 | NC/C(=C\F)COc1cnc2c(c1)CN(C1CC1)C2=O [Hydrochloride of Compound 27, (E)-3-((2-(aminomethyl)-3-fluoroallyl)oxy)-6-cyclopropyl-5,6-dihydro-7H-pyrrolo[3,4-b]pyridin-7-one] | – | 0.016 µM | 38 µM | –
8 | Cl.NC/C(=C/F)COc1cnc2c(c1)CN(C1CC1)C2=O [Hydrochloride of Compound 28, (Z)-3-((2-(aminomethyl)-3-fluoroallyl)oxy)-6-cyclopropyl-5,6-dihydro-7H-pyrrolo[3,4-b]pyridin-7-one] | →0 mL/min/kg | 0.014 µM | 20 µM | –
9 | Cl.NC/C(=C/F)COc1ccc2c(c1)CN(C1CC1)C2=O [Hydrochloride of Compound 29, (Z)-5-((2-(aminomethyl)-3-fluoroallyl)oxy)-2-cyclopropylisoindolin-1-one] | 4.18 mL/min/kg | 0.025 µM | 4.1 µM | –
10 | NC/C(=C\F)COc1ccc2c(c1)C(=O)N(C1CC1)C2=O [Hydrochloride of Compound 30, (E)-5-((2-(aminomethyl)-3-fluoroallyl)oxy)-2-cyclopropyl isoindolin-1,3-dione] | – | 0.032 µM | 5.8 µM | –
11 | NC/C(=C/F)COc1ccc2c(c1)C(=O)N(C1CC1)C2=O [Hydrochloride of Compound 31, (Z)-5-((2-(aminomethyl)-3-fluoroallyl)oxy)-2-cyclopropylisoindolin-1,3-dione] | – | 0.011 µM | – | –
12 | NC/C(=C/F)COc1ccc2c(c1)CCN(C1CC1)C2=O [Hydrochloride of Compound 34, (Z)-6-((2-(aminomethyl)-3-fluoroallyl)oxy)-2-cyclopropyl-3,4-dihydroisoquinolin-1(2H)-one] | – | 0.006 µM | 8.4 µM | –
13 | NC/C(=C/F)COc1ccc2c(n1)CCN(C1CC1)C2=O [Trifluoroacetate of Compound 23, (Z)-2-((2-(aminomethyl)-3-fluoroallyl)oxy)-6-cyclopropyl-7,8-dihydro-1,6-naphthyridin-5(6H)-one] | – | 0.014 µM | 19 µM | IC50 (MAO-A): 10 µM; IC50 (rhVAP-1 [3]; pre-incubation 0 minute): 0.206 µM; IC50 (rhVAP-1 [3]; pre-incubation 3 minutes): 0.0186 µM; IC50 (rhVAP-1 [3]; pre-incubation 6 minutes): 0.0152 µM; IC50 (rhVAP-1 [3]; pre-incubation 9 minutes): 0.014 µM; IC50 (rhVAP-1 [3]; pre-incubation 12 minutes): 0.0125 µM
14 | NC/C(=C\F)COc1ccc2c(n1)CN(C1CC1)C2=O [Trifluoroacetate of Compound 24, (E)-2-((2-(aminomethyl)-3-fluoroallyl)oxy)-6-cyclopropyl-6,7-dihydro-5H-pyrrolo[3,4-b]pyridin-5-one] | →0 mL/min/kg | 0.024 µM | 37 µM | –
15 | NC/C(=C/F)COc1ccc2c(n1)CN(C1CC1)C2=O [Trifluoroacetate of Compound 25, (Z)-2-((2-(aminomethyl)-3-fluoroallyl)oxy)-6-cyclopropyl-6,7-dihydro-5H-pyrrolo[3,4-b]pyridin-5-one] | – | 0.025 µM | 13 µM | –
16 | NC/C(=C\F)COc1ccc2c(n1)CCN(C1CC1)C2=O [Trifluoroacetate of Compound 26, (E)-2-((2-(aminomethyl)-3-fluoroallyl)oxy)-6-cyclopropyl-7,8-dihydro-1,6-naphthyridin-5(6H)-one] | – | 0.051 µM | 8.8 µM | –
17 | NC/C(=C/F)COc1cc2c(cn1)C(=O)N(C1CC1)CC2 [Trifluoroacetate of Compound 32, (Z)-6-((2-(aminomethyl)-3-fluoroallyl)oxy)-2-cyclopropyl-3,4-dihydro-2,7-naphthyridine-1(2H)-one] | – | 0.011 µM | 6.6 µM | –
18 | NC/C(=C/F)COc1cc2c(cn1)C(=O)N(C1CC1)C2 [Trifluoroacetate of Compound 33, (Z)-6-((2-(aminomethyl)-3-fluoroallyl)oxy)-2-cyclopropyl-1,2-dihydro-3H-pyrrolo-[3,4-c]pyridin-3-one] | – | 0.014 µM | 8.6 µM | –
